Assay results reported in patent publication US4102886A, “Process for the preparation of benzo(a)quinolizidine derivatives” (priority 1974, dated 1978).
Like-named read-outs stand apart in the source and are kept apart here.

Columns and labels:
[1] = Inhibition of kaolin-induced oedema; type: in vivo; conditions: in vivo; LD50/ED50; read-out: Therapeutical index LD50/ED50, kaolin-oedema
Protocol: (§1) Inhibition of Kaolin- and carrageenin-induced oedema
(§2) The tests were carried out on groups each consisting of at least 10 animals. The percentage inhibition of oedema, in relation to the untreated controls, was determined for each of the animals, and the average values were calculated.

[2] = tested on: kaolin-induced oedema; test: Inhibition of kaolin-induced oedema; type: in vivo; conditions: 2 hours
Protocol: as §1, §2

[3] = Inhibition of carrageenin-induced oedema; type: in vivo; conditions: in vivo; LD50/ED50; read-out: Therapeutical index LD50/ED50, carrageenin-oedema
Protocol: as §1, §2

[4] = tested on: carrageenin-induced oedema; test: Inhibition of carrageenin-induced oedema; type: in vivo; conditions: 1.5 hours
Protocol: as §1, §2

[5] = tested on: serotonine-induced oedema; test: Tests performed on serotonine-induced oedema; type: in vivo
Protocol: Tests performed on serotonine-induced oedema
The tests were carried out on groups each consisting of 10 animals. The percentage inhibition of oedema, in relation to the untreated controls, was determined for each of the animals. The data listed in Table 3 are the averages of the inhibition values.

[6] = Analgesic effect by the hot-plate test; type: in vivo; conditions: 50 mg./kg. p.o.
[7] = tested on: rats; test: Acute toxicity tests; type: in vivo; conditions: p.o., Litchfield-Wildoxon method
Protocol: (§3) The acute toxicity values of the compounds were determined on rats, after oral administration. The LD50 values were calculated according to the Litchfield-Wildoxon method.

[8] = Determination of ulcer index
[9] = tested on: Cotton granuloma; test: Cotton granuloma test; type: in vivo; conditions: 50 mg./kg.
[10] = tested on: experimentally provoked fever; test: Antipyretic activity (experimentally provoked fever); type: in vivo; parameters: unit not given here
From the text: Besides their antiphlogistic activities, some of the benzo(a)quinolizidine derivatives exert antipyretic effects as well. On the basis of the tests performed on experimentally provoked fever, the antipyretic activities of the compounds according to the invention surpass the effect of amidazophenum.

[11] = Analgesic effect by the writhing test; type: in vivo
[12] = Acute toxicity tests; type: in vivo; conditions: rat, in vivo, po; rats, Litchfield-Wildoxon method
Protocol: as §3

[13] = in vivo
[14] = tested on: central nervious system; test: Narcosis potentiating effect; type: in vivo
[15] = Toxicity tests performed with compound SC-118; type: in vivo; conditions: rat, in vivo, CFY rats
Protocol: (§4) In order to give a more detailed information, in the following there are given the results of the toxicity tests performed with compound SC-118. The tests were carried out on CFY rats, each weighing 150 to 200 g.

[16] = tested on: CFY rats; test: Toxicity tests performed with compound SC-118; type: in vivo
Protocol: as §4

[17] = 25 mg./kg. p.o., 1 hour after administration
[18] = 25 mg./kg. p.o., 2 hours after administration
[19] = 25 mg./kg. p.o., 3 hours after administration
[20] = 50 mg./kg. p.o., 1 hour after administration
[21] = 50 mg./kg. p.o., 2 hours after administration
[22] = 50 mg./kg. p.o., 3 hours after administration

COc1ccc2c(c1)c(CC(=O)O)c(C)n2C(=O)c1ccc(Cl)cc1 [Indomethacine, reference compound]
selectivity ratio [1]: 2.3
Inhibition of kaolin-induced oedema 2 hours after administration ([2]; 10 mg./kg. p.o.): 27.2%
selectivity ratio [3]: 1.3
Inhibition of carrageenin-induced oedema 1.5 hours after administration ([4]; 10 mg./kg. p.o.): 26.7%
Percentage inhibition 1 hour after administration (serotonine-induced oedema) ([5]; 25 mg./kg. p.o.): 1.4%
Prolongation of the reaction time, % (2 hours after administration) [6]: no evaluable effect can be
LD50 [7]: 12 mg/kg
Erosion ([8]; female): 1/10
Ulcer ([8]; female): 3/10
ulcerogeneous effect ([8]; in words): marked ulcerogeneous effect
Erosion ([8]; male): 1/10
Ulcer ([8]; male): 3/10

CCCCC1C(=O)N(c2ccccc2)N(c2ccccc2)C1=O [Phenylbutazone]
Inhibition of kaolin-induced oedema 2 hours after administration ([2]; 50 mg./kg. p.o.): 27.5%
Inhibition of carrageenin-induced oedema 1.5 hours after administration ([4]; 50 mg./kg. p.o.): 24.3%
Effect, % (cotton granuloma test) [9]: 19.6%
Percentage inhibition 1 hour after administration (serotonine-induced oedema) ([5]; 100 mg./kg. p.o.): 10.2%
Variation of body temperature [10, 17]: -0.82
Variation of body temperature [10, 18]: -0.84
Variation of body temperature [10, 19]: -0.73
Variation of body temperature [10, 20]: -1.05
Variation of body temperature [10, 21]: -1.07
Variation of body temperature [10, 22]: -0.76
Prolongation of the reaction time, % (2 hours after administration) [6]: no evaluable effect can be
Activity, % (reduction of the number of writhings in relation to the controls) ([11]; 100 mg./kg. p.o.): 17.6%
LD50 [12]: 1180 mg/kg
Erosion [13]: 0/10

N#CCCC1CN2CCc3cc4c(cc3C2CC1=O)OCO4 (stereo not drawn) [SC-118, 2-Oxo-3-(β-cyano-ethyl)-9,10-methylenedioxy-1,2,3,4,6,7-hexahydro-11bH-benzo(a)quinolisidine]
selectivity ratio [1]: 29.2
Inhibition of kaolin-induced oedema 2 hours after administration ([2]; 25 mg./kg. p.o.): 18.1%
Inhibition of kaolin-induced oedema 2 hours after administration ([2]; 50 mg./kg. p.o.): 27.5%
Inhibition of kaolin-induced oedema 2 hours after administration ([2]; 75 mg./kg. p.o.): 43.7%
Inhibition of kaolin-induced oedema 2 hours after administration ([2]; 100 mg./kg. p.o.): 53.4%
selectivity ratio [3]: 22.6
Inhibition of carrageenin-induced oedema 1.5 hours after administration ([4]; 25 mg./kg. p.o.): 22.0%
Inhibition of carrageenin-induced oedema 1.5 hours after administration ([4]; 50 mg./kg. p.o.): 30.6%
Inhibition of carrageenin-induced oedema 1.5 hours after administration ([4]; 75 mg./kg. p.o.): 47.7%
Inhibition of carrageenin-induced oedema 1.5 hours after administration ([4]; 100 mg./kg. p.o.): 52.7%
Effect, % (cotton granuloma test) [9]: 26.4%
Percentage inhibition 1 hour after administration (serotonine-induced oedema) ([5]; 25 mg./kg. p.o.): 28.5%
Percentage inhibition 1 hour after administration (serotonine-induced oedema) ([5]; 50 mg./kg. p.o.): 42.1%
Percentage inhibition 1 hour after administration (serotonine-induced oedema) ([5]; 75 mg./kg. p.o.): 48.7%
Variation of body temperature [10, 17]: -1.67
Variation of body temperature [10, 18]: -1.81
Variation of body temperature [10, 19]: -1.60
Variation of body temperature [10, 20]: -2.75
Variation of body temperature [10, 21]: -3.34
Variation of body temperature [10, 22]: -4.03
Prolongation of the reaction time, % (2 hours after administration) [6]: 61.2%
Activity, % (reduction of the number of writhings in relation to the controls) ([11]; 50 mg./kg. p.o.): 41.8%
Prolongation of the sleep period in relation to the untreated controls, % ([14]; 25 mg./kg. p.o.): 96.4%
Prolongation of the sleep period in relation to the untreated controls, % ([14]; 50 mg./kg. p.o.): 253.0%
LD50 [12]: 1410 mg/kg
LD50 ([15]; female, read-out: LD50, f): 1400 mg/kg
LD50 ([15]; male, read-out: LD50, m): 1420 mg/kg
Dead animals/treated animals ([16]; 750 mg./kg., 24 hours, female): 0/10
Dead animals/treated animals ([16]; 750 mg./kg., 24 hours, male): 0/10
Dead animals/treated animals ([16]; 750 mg./kg., 48 hours, female): 0/10
Dead animals/treated animals ([16]; 750 mg./kg., 48 hours, male): 0/10
Dead animals/treated animals ([16]; 750 mg./kg., 72 hours, female): 0/10
Dead animals/treated animals ([16]; 750 mg./kg., 72 hours, male): 0/10
Dead animals/treated animals ([16]; 1000 mg./kg., 24 hours, female): 2/10
Dead animals/treated animals ([16]; 1000 mg./kg., 24 hours, male): 1/10
Dead animals/treated animals ([16]; 1000 mg./kg., 48 hours, female): 2/10
Dead animals/treated animals ([16]; 1000 mg./kg., 48 hours, male): 2/10
Dead animals/treated animals ([16]; 1000 mg./kg., 72 hours, female): 2/10
Dead animals/treated animals ([16]; 1000 mg./kg., 72 hours, male): 2/10
Dead animals/treated animals ([16]; 1250 mg./kg., 24 hours, female): 3/10
Dead animals/treated animals ([16]; 1250 mg./kg., 24 hours, male): 2/10
Dead animals/treated animals ([16]; 1250 mg./kg., 48 hours, female): 3/10
Dead animals/treated animals ([16]; 1250 mg./kg., 48 hours, male): 3/10
Dead animals/treated animals ([16]; 1250 mg./kg., 72 hours, female): 3/10
Dead animals/treated animals ([16]; 1250 mg./kg., 72 hours, male): 3/10
Dead animals/treated animals ([16]; 1500 mg./kg., 24 hours, female): 6/10
Dead animals/treated animals ([16]; 1500 mg./kg., 24 hours, male): 5/10
Dead animals/treated animals ([16]; 1500 mg./kg., 48 hours, female): 6/10
Dead animals/treated animals ([16]; 1500 mg./kg., 48 hours, male): 5/10
Dead animals/treated animals ([16]; 1500 mg./kg., 72 hours, female): 6/10
Dead animals/treated animals ([16]; 1500 mg./kg., 72 hours, male): 5/10
Dead animals/treated animals ([16]; 1750 mg./kg., 24 hours, female): 6/10
Dead animals/treated animals ([16]; 1750 mg./kg., 24 hours, male): 6/10
Dead animals/treated animals ([16]; 1750 mg./kg., 48 hours, female): 8/10
Dead animals/treated animals ([16]; 1750 mg./kg., 48 hours, male): 8/10
Dead animals/treated animals ([16]; 1750 mg./kg., 72 hours, female): 8/10
Dead animals/treated animals ([16]; 1750 mg./kg., 72 hours, male): 8/10
Dead animals/treated animals ([16]; 2000 mg./kg., 24 hours, female): 10/10
Dead animals/treated animals ([16]; 2000 mg./kg., 24 hours, male): 10/10
Dead animals/treated animals ([16]; 2000 mg./kg., 48 hours, female): 10/10
Dead animals/treated animals ([16]; 2000 mg./kg., 48 hours, male): 10/10
Dead animals/treated animals ([16]; 2000 mg./kg., 72 hours, female): 10/10
Dead animals/treated animals ([16]; 2000 mg./kg., 72 hours, male): 10/10
Erosion ([8]; female): 0/10
Ulcer ([8]; female): 0/10
Erosion ([8]; male): 0/10
Ulcer ([8]; male): 0/10
